Data on 14 compounds can be found in ChEMBL document CHEMBL1148570, “Acryloylamino-salicylanilides as EGFR PTK inhibitors” (Bioorg Med Chem Lett, 2006).

In experiment [1] the target is Epidermal growth factor receptor (Homo sapiens) (UniProt P00533). Briefly: Inhibition of EGFR PTK at 0.01 uM.
Experiment [2] has the same target. Briefly: Inhibition of EGFR PTK at 0.1 uM.
For experiment [3] the target is unchanged. Nature of the experiment: Inhibition of EGFR PTK at 1 uM.
For experiment [4] the target is unchanged. Briefly: Inhibition of EGFR PTK at 10 uM.

Sequence of Epidermal growth factor receptor (Homo sapiens) (P00533 whole entry): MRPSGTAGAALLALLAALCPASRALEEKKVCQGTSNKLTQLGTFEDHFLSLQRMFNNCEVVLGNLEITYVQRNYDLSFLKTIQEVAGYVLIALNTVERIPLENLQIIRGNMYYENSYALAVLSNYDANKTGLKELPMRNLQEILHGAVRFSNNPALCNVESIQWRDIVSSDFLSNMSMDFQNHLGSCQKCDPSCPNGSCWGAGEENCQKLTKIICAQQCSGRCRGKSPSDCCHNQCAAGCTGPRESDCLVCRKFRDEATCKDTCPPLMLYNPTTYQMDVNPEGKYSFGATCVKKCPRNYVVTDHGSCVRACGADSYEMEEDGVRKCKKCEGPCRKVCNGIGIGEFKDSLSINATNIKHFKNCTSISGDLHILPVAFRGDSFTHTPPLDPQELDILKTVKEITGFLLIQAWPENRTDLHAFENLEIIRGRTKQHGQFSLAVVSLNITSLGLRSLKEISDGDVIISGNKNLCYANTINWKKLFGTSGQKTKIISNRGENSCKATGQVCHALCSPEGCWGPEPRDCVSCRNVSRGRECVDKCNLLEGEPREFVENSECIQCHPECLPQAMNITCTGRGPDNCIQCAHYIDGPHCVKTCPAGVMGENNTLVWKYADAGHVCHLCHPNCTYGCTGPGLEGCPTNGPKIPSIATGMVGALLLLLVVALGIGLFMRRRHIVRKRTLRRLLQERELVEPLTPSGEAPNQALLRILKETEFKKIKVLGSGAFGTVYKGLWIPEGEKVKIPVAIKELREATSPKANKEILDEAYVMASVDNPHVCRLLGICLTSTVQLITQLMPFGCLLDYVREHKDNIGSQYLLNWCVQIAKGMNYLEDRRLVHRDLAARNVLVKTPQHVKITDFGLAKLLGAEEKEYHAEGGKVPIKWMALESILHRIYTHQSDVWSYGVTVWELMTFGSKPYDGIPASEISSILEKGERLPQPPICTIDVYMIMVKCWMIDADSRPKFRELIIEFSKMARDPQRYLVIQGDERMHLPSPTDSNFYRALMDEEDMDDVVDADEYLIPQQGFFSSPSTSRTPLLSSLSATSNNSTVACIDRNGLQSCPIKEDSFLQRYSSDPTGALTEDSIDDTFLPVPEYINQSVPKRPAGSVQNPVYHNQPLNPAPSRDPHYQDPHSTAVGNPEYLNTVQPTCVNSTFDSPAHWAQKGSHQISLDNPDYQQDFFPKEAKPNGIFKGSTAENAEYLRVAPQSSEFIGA

With `C=CC(=O)Nc1ccc(C(=O)Nc2cccc(Br)c2)c(O)c1`, the inhibition in experiment [1] turned out to be 76%; in experiment [2], 88.2%; in experiment [3] it was 89.9%; in experiment [4], 91.3%.

`CCC(=O)Nc1ccc(C(=O)Nc2ccc(Oc3ccccc3)cc2)c(O)c1`: the inhibition in experiment [4] is 48.5%.

Turning to `C=CC(=O)Nc1ccc(C(=O)Nc2cccc(Oc3ccccc3)c2)c(OC)c1`, the inhibition in experiment [4] was 1.59%.

With `C=CC(=O)Nc1ccc(C(=O)Nc2cccc(C(=O)N3CCCCC3)c2)c(O)c1`, the inhibition is 75.1% in experiment [1], 88% in experiment [2], 91.2% in experiment [3] and 91.9% in experiment [4].

In turn, `CCC(=O)Nc1ccc(C(=O)Nc2cccc(C(=O)N(CC)CC)c2)c(O)c1` showed an inhibition in experiment [4] of 46.6%.

For `C=CC(=O)Nc1ccc(C(=O)Nc2cccc(C(=O)N3CCCC3)c2)c(O)c1`, the inhibition in experiment [1] worked out at 26%; in experiment [2], 84.2%; in experiment [3] it was 88.6%; in experiment [4], 91%.

In the case of `C=CC(=O)Nc1ccc(O)c(C(=O)Nc2cccc(Br)c2)c1`, the inhibition in experiment [1] amounted to 52.9%; in experiment [2], 89.5%; in experiment [3], 90.6%; in experiment [4] it was 93%.

In the case of `C=CC(=O)Nc1ccc(C(=O)Nc2cccc(Oc3ccccc3)c2)c(O)c1`, the inhibition worked out at 18.8% in experiment [1], 86.6% in experiment [2], 89.3% in experiment [3] and 91.2% in experiment [4].

`C=CC(=O)Nc1ccc(C(=O)Nc2cccc(C(O)c3ccccc3)c2)c(OC)c1` (configuration not stated) registered an inhibition in experiment [4] of 5.84%.

`C=CC(=O)Nc1ccc(C(=O)Nc2cccc(Cl)c2)c(O)c1`: the figures for the inhibition in experiment [2], in experiment [3] and in experiment [4] were 21.6%, 46.3% and 62.6%, respectively.

Take `C=CC(=O)Nc1ccc(C(=O)Nc2ccc(Oc3ccccc3)cc2)c(O)c1`: the inhibition in experiment [1] was 0%; in experiment [2], 0.8%; in experiment [3], 28.1%; in experiment [4] it was 62.2%.

Take `C=CC(=O)Nc1ccc(O)c(C(=O)Nc2cccc(Cl)c2)c1`: the inhibition is 23.3% in experiment [2], 38.3% in experiment [3] and 73.1% in experiment [4].

`C=CC(=O)Nc1ccc(C(=O)Nc2cccc(C(O)c3ccccc3)c2)c(O)c1` (configuration not stated): the inhibition is 49.3% in experiment [1], 84.8% in experiment [2], 91.7% in experiment [3] and 93.5% in experiment [4].

For the compound `C=CC(=O)Nc1ccc(C(=O)Nc2cccc(C(=O)N(CC)CC)c2)c(O)c1`, the inhibition worked out at 14.1% in experiment [1], 40.4% in experiment [2], 54.4% in experiment [3] and 63.9% in experiment [4].

As usually defined, the inhibition is the percentage by which the read-out fell short of the control.
